Marks after values point to notes of the source that are not given here.
Key:
P-glycoprotein = settings: cited from earlier work
[1] = adults, similar dose; cited from earlier work
[2] = tested on: xenograft models of pediatric solid tumors; settings: ref Roche data on file; cited from earlier work
[3] = Cobimetinib plasma pharmacokinetics in iMATRIX-cobi; format: in vivo, human; settings: for Cmax: human, plasma, oral, 1 mg/kg, Steady state Cmax, geometric mean (%CV), 1.0 mg/kg suspension
[4] = Days 1−21 of each 28-day cycle; cited from earlier work
[5] = tested on: relapsed/refractory solid tumors with known/expected MAPK pathway involvement; assay: Investigator-assessed anti-tumor activity in iMATRIX-cobi; format: in vivo, human
[6] = Dose escalation PN in NF1 (n = 12)

O=C(c1ccc(F)c(F)c1Nc1ccc(I)cc1F)N1CC(O)([C@@H]2CCCCN2)C1 [cobimetinib]
P-glycoprotein substrate (P-glycoprotein): substrate of P-glycoprotein
Cobimetinib AUC lower in healthy subjects versus cancer patients [1]: 50%
Activity in xenograft models [2]: activity observed
Cmax ([3]; dose escalation (n = 8)): 179 ng/mL
Cmax ([3]; expansion (n = 9)): 116 ng/mL
Exposure-safety relationships ([3]; pediatric patients): no exposure-safety relationships
Recommended Phase II dose (RP2D) in adults [4]: 60 mg/day
Best overall response: CR ([5]; All LGG patients (n = 32)): 0 n (%)
Best overall response: Non-CR/Non-PD ([5]; All LGG patients (n = 32)): 1 (3) n (%)
Best overall response: Non-evaluable ([5]; All LGG patients (n = 32)): 1 (3) n (%)
Best overall response: Not available ([5]; All LGG patients (n = 32)): 2 (6) n (%)
Best overall response: ORR ([5]; All LGG patients (n = 32)): 3 (9) n (%)
Best overall response: PD ([5]; All LGG patients (n = 32)): 7 (22) n (%)
Best overall response: PR ([5]; All LGG patients (n = 32)): 3 (9) n (%)
Best overall response: SD ([5]; All LGG patients (n = 32)): 18 (56) n (%)
Best overall response: CR ([5]; Dose escalation LGG (n = 20)): 0 n (%)
Best overall response: Non-CR/Non-PD ([5]; Dose escalation LGG (n = 20)): 1 (5) n (%)
Best overall response: Non-evaluable ([5]; Dose escalation LGG (n = 20)): 0 n (%)
Best overall response: Not available ([5]; Dose escalation LGG (n = 20)): 2 (10) n (%)
Best overall response: ORR ([5]; Dose escalation LGG (n = 20)): 2 (10) n (%)
Best overall response: PD ([5]; Dose escalation LGG (n = 20)): 5 (25) n (%)
Best overall response: PR ([5]; Dose escalation LGG (n = 20)): 2 (10) n (%)
Best overall response: SD ([5]; Dose escalation LGG (n = 20)): 10 (50) n (%)
Best overall response: CR [5, 6]: 0 n (%)
Best overall response: Non-CR/Non-PD [5, 6]: 0 n (%)
Best overall response: Non-evaluable [5, 6]: 0 n (%)
Best overall response: Not available [5, 6]: 0 n (%)
Best overall response: ORR [5, 6]: 0 n (%)
Best overall response: PD [5, 6]: 0 n (%)
Best overall response: PR [5, 6]: 0 n (%)
Best overall response: SD [5, 6]: 12 (100) n (%)
Best overall response: CR ([5]; Expansion LGG (n = 12)): 0 n (%)
Best overall response: Minor response per RANO criteria ([5]; Expansion LGG (n = 12)): 1 (8)^a n (%)
Best overall response: Non-CR/Non-PD ([5]; Expansion LGG (n = 12)): 0 n (%)
Best overall response: Non-evaluable ([5]; Expansion LGG (n = 12)): 1 (8) n (%)
Best overall response: Not available ([5]; Expansion LGG (n = 12)): 0 n (%)
Best overall response: ORR ([5]; Expansion LGG (n = 12)): 1 (8) n (%)
Best overall response: PD ([5]; Expansion LGG (n = 12)): 2 (17) n (%)
Best overall response: PR ([5]; Expansion LGG (n = 12)): 1 (8) n (%)
Best overall response: SD ([5]; Expansion LGG (n = 12)): 8 (67) n (%)
Best overall response: CR ([5]; Overall population (n = 56)): 0 n (%)
Best overall response: Non-CR/Non-PD ([5]; Overall population (n = 56)): 1 (2) n (%)
Best overall response: Non-evaluable ([5]; Overall population (n = 56)): 2 (4) n (%)
Best overall response: Not available ([5]; Overall population (n = 56)): 4 (7) n (%)
Best overall response: ORR ([5]; Overall population (n = 56)): 3 (5) n (%)
Best overall response: PR ([5]; Overall population (n = 56)): 3 (5) n (%)
Best overall response: SD ([5]; Overall population (n = 56)): 33 (59) n (%)
Median DoR ([5]; in vivo): not reached
Median duration of stable disease ([5]; overall): 11.0 months
Non-evaluable ([5]; overall): 4%
Median OS ([5]; overall population): not reached
Overall response rate ([5]; overall, 3/56, all partial responses in LGG): 5.4%
Partial response (PR) ([5]; overall, 3/56 patients, all with LGG): 5%
Stable disease ([5]; overall, 33/56): 59%

— article PMC9217999 (Targeted Oncology, 2022)
